Source: the supplement of paper PMC10307832

What was measured:
Assay in all cases: relative viability (nuclei count vs DMSO), 5 days (fraction); higher = more cells survive
Linifanib + Bortezomib = compound: Cc1ccc(F)c(NC(=O)Nc2ccc(-c3cccc4[nH]nc(N)c34)cc2)c1 [Linifanib] + CC(C)C[C@H](NC(=O)[C@H](Cc1ccccc1)NC(=O)c1cnccn1)B(O)O [Bortezomib] (partner 0.002 µM)
How it was run: (§1)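 Lung cancer cell lines were pin-tool dosed in 1536-well plates on the day after seeding, with either a lone drug or a fixed anchor-drug dose plus five library-drug doses (not always all listed) in √10 steps. Nuclei were counted on 4× images after 5 days. Relative viability is the ratio of treated-well to vehicle-well nuclei counts, with each value a median of duplicate plates.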

Linifanib + AZD7762 = compound: Cc1ccc(F)c(NC(=O)Nc2ccc(-c3cccc4[nH]nc(N)c34)cc2)c1 [Linifanib] + NC(=O)Nc1cc(-c2cccc(F)c2)sc1C(=O)N[C@H]1CCCNC1 [AZD7762] (partner 0.2 µM)
How it was run: as §1

Linifanib + Olaparib = compound: Cc1ccc(F)c(NC(=O)Nc2ccc(-c3cccc4[nH]nc(N)c34)cc2)c1 [Linifanib] + O=C(c1cc(Cc2n[nH]c(=O)c3ccccc23)ccc1F)N1CCN(C(=O)C2CC2)CC1 [Olaparib] (partner 8 µM)
How it was run: as §1

Linifanib + Navitoclax = compound: Cc1ccc(F)c(NC(=O)Nc2ccc(-c3cccc4[nH]nc(N)c34)cc2)c1 [Linifanib] + CC1(C)CCC(c2ccc(Cl)cc2)=C(CN2CCN(c3ccc(C(=O)NS(=O)(=O)c4ccc(N[C@H](CCN5CCOCC5)CSc5ccccc5)c(S(=O)(=O)C(F)(F)F)c4)cc3)CC2)C1 [Navitoclax] (partner 0.5 µM)
How it was run: as §1

Linifanib + Foretinib = compound: Cc1ccc(F)c(NC(=O)Nc2ccc(-c3cccc4[nH]nc(N)c34)cc2)c1 [Linifanib] + COc1cc2c(Oc3ccc(NC(=O)C4(C(=O)Nc5ccc(F)cc5)CC4)cc3F)ccnc2cc1OCCCN1CCOCC1 [Foretinib] (partner 0.25 µM)
How it was run: as §1

Linifanib + Crizotinib = compound: Cc1ccc(F)c(NC(=O)Nc2ccc(-c3cccc4[nH]nc(N)c34)cc2)c1 [Linifanib] + C[C@@H](Oc1cc(-c2cnn(C3CCNCC3)c2)cnc1N)c1c(Cl)ccc(F)c1Cl [Crizotinib] (partner 1 µM)
How it was run: as §1

Linifanib + Lapatinib = compound: Cc1ccc(F)c(NC(=O)Nc2ccc(-c3cccc4[nH]nc(N)c34)cc2)c1 [Linifanib] + CS(=O)(=O)CCNCc1ccc(-c2ccc3ncnc(Nc4ccc(OCc5cccc(F)c5)c(Cl)c4)c3c2)o1 [Lapatinib] (partner 2 µM)
How it was run: as §1

Linifanib + Pictilisib = compound: Cc1ccc(F)c(NC(=O)Nc2ccc(-c3cccc4[nH]nc(N)c34)cc2)c1 [Linifanib] + CS(=O)(=O)N1CCN(Cc2cc3nc(-c4cccc5[nH]ncc45)nc(N4CCOCC4)c3s2)CC1 [Pictilisib] (partner 1 µM)
How it was run: as §1

Linifanib + Linsitinib = compound: Cc1ccc(F)c(NC(=O)Nc2ccc(-c3cccc4[nH]nc(N)c34)cc2)c1 [Linifanib] + C[C@]1(O)C[C@@H](c2nc(-c3ccc4ccc(-c5ccccc5)nc4c3)c3c(N)nccn32)C1 [Linsitinib] (partner 1 µM)
How it was run: as §1

Linifanib + Alpelisib = compound: Cc1ccc(F)c(NC(=O)Nc2ccc(-c3cccc4[nH]nc(N)c34)cc2)c1 [Linifanib] + Cc1nc(NC(=O)N2CCC[C@H]2C(N)=O)sc1-c1ccnc(C(C)(C)C(F)(F)F)c1 [Alpelisib] (partner 2 µM)
How it was run: as §1

Linifanib = compound: Cc1ccc(F)c(NC(=O)Nc2ccc(-c3cccc4[nH]nc(N)c34)cc2)c1 [Linifanib]
How it was run: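 Lung cancer cell lines in 1536-well plates were kept overnight at 37 °C, then pinned with five library-drug doses (not always all listed) spaced by √10 on vehicle-anchored plates. After 5 days without medium change, cells were fixed, permeabilised and Hoechst-stained in one step, imaged at 4×, and nuclei were counted with MetaXpress. Viability is treated-well nuclei divided by vehicle-well nuclei, taken as the median over plates. Plates passed only with control CV below 25% and at least one doubling.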

Linifanib + Pemetrexed = compound: Cc1ccc(F)c(NC(=O)Nc2ccc(-c3cccc4[nH]nc(N)c34)cc2)c1 [Linifanib] + Nc1nc2[nH]cc(CCc3ccc(C(=O)N[C@@H](CCC(=O)O)C(=O)O)cc3)c2c(=O)[nH]1 [Pemetrexed] (partner 0.2 µM)
How it was run: as §1

Linifanib + Palbociclib = compound: Cc1ccc(F)c(NC(=O)Nc2ccc(-c3cccc4[nH]nc(N)c34)cc2)c1 [Linifanib] + CC(=O)c1c(C)c2cnc(Nc3ccc(N4CCNCC4)cn3)nc2n(C2CCCC2)c1=O [Palbociclib] (partner 0.5 µM)
How it was run: as §1

Linifanib + OSI-027 = compound: Cc1ccc(F)c(NC(=O)Nc2ccc(-c3cccc4[nH]nc(N)c34)cc2)c1 [Linifanib] + COc1cccc2cc(-c3nc([C@H]4CC[C@H](C(=O)O)CC4)n4ncnc(N)c34)[nH]c12 [OSI-027] (partner 0.5 µM)
How it was run: as §1

Linifanib + Luminespib = compound: Cc1ccc(F)c(NC(=O)Nc2ccc(-c3cccc4[nH]nc(N)c34)cc2)c1 [Linifanib] + CCNC(=O)c1noc(-c2cc(C(C)C)c(O)cc2O)c1-c1ccc(CN2CCOCC2)cc1 [Luminespib] (partner 0.01 µM)
How it was run: as §1

Linifanib + Vorinostat = compound: Cc1ccc(F)c(NC(=O)Nc2ccc(-c3cccc4[nH]nc(N)c34)cc2)c1 [Linifanib] + O=C(CCCCCCC(=O)Nc1ccccc1)NO [Vorinostat] (partner 1 µM)
How it was run: as §1

Linifanib + Phenformin = compound: Cc1ccc(F)c(NC(=O)Nc2ccc(-c3cccc4[nH]nc(N)c34)cc2)c1 [Linifanib] + N=C(N)NC(=N)NCCc1ccccc1 [Phenformin] (partner 250 µM)
How it was run: as §1

Linifanib + Dasatinib = compound: Cc1ccc(F)c(NC(=O)Nc2ccc(-c3cccc4[nH]nc(N)c34)cc2)c1 [Linifanib] + Cc1nc(Nc2ncc(C(=O)Nc3c(C)cccc3Cl)s2)cc(N2CCN(CCO)CC2)n1 [Dasatinib] (partner 0.075 µM)
How it was run: as §1

Linifanib + Decitabine = compound: Cc1ccc(F)c(NC(=O)Nc2ccc(-c3cccc4[nH]nc(N)c34)cc2)c1 [Linifanib] + Nc1ncn([C@H]2C[C@H](O)[C@@H](CO)O2)c(=O)n1 [Decitabine] (partner 2 µM)
How it was run: as §1

Linifanib + Trametinib = compound: Cc1ccc(F)c(NC(=O)Nc2ccc(-c3cccc4[nH]nc(N)c34)cc2)c1 [Linifanib] + CC(=O)Nc1cccc(-n2c(=O)n(C3CC3)c(=O)c3c(Nc4ccc(I)cc4F)n(C)c(=O)c(C)c32)c1 [Trametinib] (partner 0.02 µM)
How it was run: as §1

Linifanib + Tozasertib = compound: Cc1ccc(F)c(NC(=O)Nc2ccc(-c3cccc4[nH]nc(N)c34)cc2)c1 [Linifanib] + Cc1cc(Nc2cc(N3CCN(C)CC3)nc(Sc3ccc(NC(=O)C4CC4)cc3)n2)n[nH]1 [Tozasertib] (partner 0.1 µM)
How it was run: as §1

For NCI-H1703, which relative viability (Linifanib + Bortezomib; first compound 0.03162 µM) is on record?
The relative viability was 0.175.

And the relative viability (Linifanib + Bortezomib; first compound 0.1 µM)?
The relative viability was 0.243.

And the relative viability (Linifanib + Bortezomib; first compound 0.3162 µM)?
Its relative viability is 0.154.

And the relative viability (Linifanib + AZD7762; first compound 0.1 µM)?
The relative viability was 0.147.

And the relative viability (Linifanib + AZD7762; first compound 0.3162 µM)?
Its relative viability is 0.118.

What about the relative viability (Linifanib + Olaparib; first compound 0.03162 µM) of the same cell line?
Its relative viability is 0.151.

What about the relative viability (Linifanib + Olaparib; first compound 0.1 µM) of the same cell line?
Its relative viability is 0.269.

What about the relative viability (Linifanib + Olaparib; first compound 0.3162 µM) of the same cell line?
The relative viability was 0.125.

And the relative viability (Linifanib + Navitoclax; first compound 0.03162 µM)?
Its relative viability is 0.277.

And the relative viability (Linifanib + Navitoclax; first compound 0.1 µM)?
The relative viability was 0.398.

And the relative viability (Linifanib + Navitoclax; first compound 0.3162 µM)?
The relative viability was 0.257.

What about the relative viability (Linifanib + Foretinib; first compound 0.1 µM) of the same cell line?
Its relative viability is 0.345.

And the relative viability (Linifanib + Foretinib; first compound 0.3162 µM)?
The relative viability was 0.294.

What about the relative viability (Linifanib + Crizotinib; first compound 0.1 µM) of the same cell line?
Its relative viability is 0.46.

And the relative viability (Linifanib + Crizotinib; first compound 0.3162 µM)?
The relative viability was 0.215.

And the relative viability (Linifanib + Lapatinib; first compound 0.1 µM)?
Its relative viability is 0.438.

And the relative viability (Linifanib + Lapatinib; first compound 0.3162 µM)?
The relative viability was 0.267.

And the relative viability (Linifanib + Pictilisib; first compound 0.03162 µM)?
The relative viability was 0.223.

What about the relative viability (Linifanib + Pictilisib; first compound 0.1 µM) of the same cell line?
Its relative viability is 0.211.

And the relative viability (Linifanib + Pictilisib; first compound 0.3162 µM)?
Its relative viability is 0.242.

And the relative viability (Linifanib + Linsitinib; first compound 0.03162 µM)?
The relative viability was 0.141.

And the relative viability (Linifanib + Linsitinib; first compound 0.1 µM)?
Its relative viability is 0.27.

And the relative viability (Linifanib + Linsitinib; first compound 0.3162 µM)?
Its relative viability is 0.129.

And the relative viability (Linifanib + Alpelisib; first compound 0.03162 µM)?
Its relative viability is 0.205.

And the relative viability (Linifanib + Alpelisib; first compound 0.1 µM)?
Its relative viability is 0.293.

What about the relative viability (Linifanib + Alpelisib; first compound 0.3162 µM) of the same cell line?
Its relative viability is 0.158.

And the relative viability (Linifanib; 0.03162 µM)?
The relative viability was 0.219.

What about the relative viability (Linifanib; 0.1 µM) of the same cell line?
The relative viability was 0.524.

And the relative viability (Linifanib; 0.3162 µM)?
Its relative viability is 0.213.

What does the source list for SW 900?
relative viability (Linifanib + Pemetrexed; first compound 0.03162 µM): 0.495; relative viability (Linifanib + Pemetrexed; first compound 0.1 µM): 0.496; relative viability (Linifanib + Pemetrexed; first compound 0.3162 µM): 0.481; relative viability (Linifanib + Palbociclib; first compound 0.03162 µM): 0.551; relative viability (Linifanib + Palbociclib; first compound 0.1 µM): 0.603; relative viability (Linifanib + Palbociclib; first compound 0.3162 µM): 0.514; relative viability (Linifanib + OSI-027; first compound 0.03162 µM): 0.507; relative viability (Linifanib + OSI-027; first compound 0.1 µM): 0.808; relative viability (Linifanib + OSI-027; first compound 0.3162 µM): 0.47; relative viability (Linifanib + AZD7762; first compound 0.03162 µM): 0.523; relative viability (Linifanib + AZD7762; first compound 0.1 µM): 0.656; relative viability (Linifanib + AZD7762; first compound 0.3162 µM): 0.533; relative viability (Linifanib + Olaparib; first compound 0.03162 µM): 0.909; relative viability (Linifanib + Olaparib; first compound 0.1 µM): 1.04; relative viability (Linifanib + Olaparib; first compound 0.3162 µM): 0.75; relative viability (Linifanib + Luminespib; first compound 0.03162 µM): 0.168; relative viability (Linifanib + Luminespib; first compound 0.1 µM): 0.172; relative viability (Linifanib + Luminespib; first compound 0.3162 µM): 0.153; relative viability (Linifanib + Vorinostat; first compound 0.03162 µM): 0.57; relative viability (Linifanib + Vorinostat; first compound 0.1 µM): 0.603; relative viability (Linifanib + Vorinostat; first compound 0.3162 µM): 0.485; relative viability (Linifanib + Phenformin; first compound 0.03162 µM): 0.659; relative viability (Linifanib + Phenformin; first compound 0.1 µM): 0.779; relative viability (Linifanib + Phenformin; first compound 0.3162 µM): 0.575; relative viability (Linifanib + Foretinib; first compound 0.03162 µM): 0.925; relative viability (Linifanib + Foretinib; first compound 0.1 µM): 0.987; relative viability (Linifanib + Foretinib; first compound 0.3162 µM): 0.666; relative viability (Linifanib + Dasatinib; first compound 0.03162 µM): 0.824; relative viability (Linifanib + Dasatinib; first compound 0.1 µM): 0.548; relative viability (Linifanib + Dasatinib; first compound 0.3162 µM): 0.578; relative viability (Linifanib + Decitabine; first compound 0.03162 µM): 0.478; relative viability (Linifanib + Decitabine; first compound 0.1 µM): 0.515; relative viability (Linifanib + Decitabine; first compound 0.3162 µM): 0.474; relative viability (Linifanib + Trametinib; first compound 0.03162 µM): 0.76; relative viability (Linifanib + Trametinib; first compound 0.1 µM): 0.83; relative viability (Linifanib + Trametinib; first compound 0.3162 µM): 0.912; relative viability (Linifanib + Tozasertib; first compound 0.03162 µM): 0.392; relative viability (Linifanib + Tozasertib; first compound 0.1 µM): 0.614; relative viability (Linifanib + Tozasertib; first compound 0.3162 µM): 0.692; relative viability (Linifanib; 0.03162 µM): 0.912; relative viability (Linifanib; 0.1 µM): 1.02; relative viability (Linifanib; 0.3162 µM): 0.865
